In ChEMBL document CHEMBL5352454, “Design, synthesis, and evaluation of tricyclic compounds containing phenyl-tetrazole as XOR inhibitors” (Eur J Med Chem, 2023):
Active and inactive are the calls of the source. The calls are words filed in the database; no cut-off is given here.

What was measured:
[1] = molecular target: T1, Xanthine dehydrogenase/oxidase (Homo sapiens, UniProt P47989); assay: Inhibition of XOR (unknown origin) using xanthine as substrate at 10 uM incubated for 3 mins followed by xanthine addition by spectroscopy based analysis relative to control; details: 0.05 h
T1 sequence (P47989 whole entry): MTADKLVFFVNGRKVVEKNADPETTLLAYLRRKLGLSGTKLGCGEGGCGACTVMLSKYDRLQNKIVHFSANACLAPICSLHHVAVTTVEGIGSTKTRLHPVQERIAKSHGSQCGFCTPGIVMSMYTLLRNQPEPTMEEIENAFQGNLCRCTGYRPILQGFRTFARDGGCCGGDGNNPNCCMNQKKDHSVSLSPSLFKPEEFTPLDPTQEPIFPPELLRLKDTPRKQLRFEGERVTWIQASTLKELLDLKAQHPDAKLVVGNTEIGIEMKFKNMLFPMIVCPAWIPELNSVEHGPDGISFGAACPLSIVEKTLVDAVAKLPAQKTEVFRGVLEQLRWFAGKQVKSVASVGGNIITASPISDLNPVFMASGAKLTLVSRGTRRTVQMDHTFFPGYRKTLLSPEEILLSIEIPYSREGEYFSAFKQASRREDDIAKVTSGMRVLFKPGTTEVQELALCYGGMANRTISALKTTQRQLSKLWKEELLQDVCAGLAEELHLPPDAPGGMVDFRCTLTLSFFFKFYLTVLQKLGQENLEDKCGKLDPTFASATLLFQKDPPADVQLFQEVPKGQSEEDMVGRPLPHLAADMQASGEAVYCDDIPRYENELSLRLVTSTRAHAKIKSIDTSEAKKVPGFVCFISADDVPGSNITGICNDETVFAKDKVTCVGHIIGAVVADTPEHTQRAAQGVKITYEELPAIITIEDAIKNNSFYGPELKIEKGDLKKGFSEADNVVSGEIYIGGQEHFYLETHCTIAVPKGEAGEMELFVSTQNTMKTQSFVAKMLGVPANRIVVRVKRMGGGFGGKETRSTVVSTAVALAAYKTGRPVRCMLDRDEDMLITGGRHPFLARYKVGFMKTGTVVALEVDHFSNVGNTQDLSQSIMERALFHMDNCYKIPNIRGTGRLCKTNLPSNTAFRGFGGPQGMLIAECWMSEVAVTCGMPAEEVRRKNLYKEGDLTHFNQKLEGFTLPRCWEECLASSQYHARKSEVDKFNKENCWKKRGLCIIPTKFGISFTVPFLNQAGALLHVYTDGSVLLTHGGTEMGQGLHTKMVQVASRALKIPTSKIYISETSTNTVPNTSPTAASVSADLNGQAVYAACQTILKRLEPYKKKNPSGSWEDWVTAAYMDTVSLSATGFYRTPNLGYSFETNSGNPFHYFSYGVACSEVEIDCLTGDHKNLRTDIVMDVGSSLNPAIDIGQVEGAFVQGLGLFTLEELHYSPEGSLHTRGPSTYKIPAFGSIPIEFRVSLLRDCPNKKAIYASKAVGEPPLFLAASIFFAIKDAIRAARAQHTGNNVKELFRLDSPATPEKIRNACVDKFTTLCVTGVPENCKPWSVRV

[2] = molecular target: T1, Xanthine dehydrogenase/oxidase; assay: Inhibition of XOR (unknown origin) using xanthine as substrate incubated for 3 mins followed by xanthine addition by spectroscopy based analysis
Mus musculus [3] = assay: Hypouricemic activity in hypoxanthine/potassium oxonate-induced hyperuricemia mouse model assessed as reduction in uric acid level at 5 mg/kg, IG measured after 3 to 5 hrs; type: functional, organism-based; details: time 3-5 hrs
Mus musculus [4] = assay: Hypouricemic activity in hypoxanthine/potassium oxonate-induced hyperuricemia mouse model assessed as reduction in serum uric acid level at 5 mg/kg, IG measured upto 9 hrs; type: functional, organism-based
Mus musculus [5] = assay: Hypouricemic activity in hypoxanthine/potassium oxonate-induced hyperuricemia mouse model assessed as reduction in uric acid level at 5 mg/kg, IG measured after 3 hrs; type: functional, organism-based

Structure (SMILES)	IC50 [2]	also measured
c1cc(-c2ccc(-c3nnn[nH]3)cc2)cs1		inhibition at 10 µM [1]: < 50%
CC(C)Oc1ccc(NC(=O)c2ccc(-c3nnn[nH]3)cc2)cc1	55 nM	Activity (Mus musculus [3]): Active; Activity (Mus musculus [4]): Active
CCOc1ccc(NC(=O)c2ccc(-c3nnn[nH]3)cc2)cc1	29.3 nM	Activity (Mus musculus [3]): Active; Activity (Mus musculus [4]): Active
Cc1nc(-c2ccc(OCC(C)C)c(C#N)c2)sc1C(=O)O [FEBUXOSTAT]	6.91 nM	Activity (Mus musculus [5]): Active
c1cc(-c2ccc(-c3nnn[nH]3)cc2)co1		inhibition at 10 µM [1]: < 50%
COc1ccc(-c2ccc(-c3nnn[nH]3)cc2)cc1	1390 nM	
O=Cc1ccccc1-c1ccc(-c2nnn[nH]2)cc1	490 nM	
CCOc1ccc(CNC(=O)c2ccc(-c3nnn[nH]3)cc2)cc1	370 nM	
CC(=O)c1ccc(-c2ccc(-c3nnn[nH]3)cc2)cc1	180 nM	
CCCOc1ccc(NC(=O)c2ccc(-c3nnn[nH]3)cc2)cc1	160 nM	
O=C(O)c1cc(-c2ccc(-c3nnn[nH]3)cc2)ccc1Cl	720 nM	
O=C(Nc1ccc(Cl)cc1)c1ccc(-c2nnn[nH]2)cc1	26.3 nM	Activity (Mus musculus [3]): Active; Activity (Mus musculus [4]): Active
COc1ccc(NC(=O)c2ccc(-c3nnn[nH]3)cc2)cc1	40 nM	
CCOc1ccccc1-c1ccc(-c2nnn[nH]2)cc1		inhibition at 10 µM [1]: < 50%
CCOc1ccc(-c2ccc(-c3nnn[nH]3)cc2)cc1	440 nM	
CC(C)(C)c1ccc(-c2ccc(-c3nnn[nH]3)cc2)cc1	4230 nM	
COc1cccc(-c2ccc(-c3nnn[nH]3)cc2)c1	2090 nM	
COc1ccccc1-c1ccc(-c2nnn[nH]2)cc1	1690 nM	
O=Cc1cc(Cl)ccc1-c1ccc(-c2nnn[nH]2)cc1	540 nM	
O=C(O)c1ccc(-c2ccc(-c3nnn[nH]3)cc2)cc1Cl	410 nM	
c1ncc(-c2ccc(-c3nnn[nH]3)cc2)cn1	920 nM	
c1cc(-c2ccc(-c3nnn[nH]3)cc2)n[nH]1		inhibition at 10 µM [1]: < 50%
